Assay results: publication PMC5606850, “Acidic C-terminal domains autoregulate the RNA chaperone Hfq” (eLife, 2017)

Tested on: ChiX sRNA and chiP mRNA
Experiment: ChiX sRNA-chiP mRNA annealing, EMSA
Format: biochemical, E. coli
Details: 10 °C; for time to form ternary complex with ChiX and chiP: 5 nM ChiX, 30 nM chiP; for stability of ChiX·Hfq·chiP ternary complex: 33.3 nM Hfq hexamer, TNK buffer
Method: Figure 4. Shortening the CTD increases auto-inhibition by acidic residues. (A) Observed annealing rate constants for 100 nM target RNA and 50 nM molecular beacon with 0–200 nM Hfq hexamer at 30°C, measured by stopped-flow fluorescence. Black, Hfq102; red, Hfq-sCTD; cyan, Hfq65. (B) Fluorescence anisotropy assay for RNA binding and release. In stopped-flow FRET experiments, the dsRNA is released after pairing with its complementary strand ([Panja et al., 2013]; [Santiago-Frangos et al., 2016]). […] Remaining RNA was displaced from Hfq by excess ssDNA (400 nM DNA2). The averages and standard deviations for three trials are plotted for each Hfq variant. […] (D) Annealing of 5 nM ^32P-ChiX sRNA with 30 nM chiP mRNA without Hfq, or with Hfq65, Hfq102 or Hfq-sCTD, as indicated above each lane. Samples were loaded on a native polyacrylamide gel 60 min or 20 s after the components were mixed. Full gel images are in Figure 4—figure supplement 2. (E) Fractions of free ChiX (black), ChiX·chiP dsRNA (light grey), ChiX·Hfq·chiP ternary complex (hatched) and ChiX·Hfq binary complex (dark grey) after 4 min of annealing, as analyzed by EMSA (Figure 4—figure supplement 2). Figure 4—figure supplement 1. Effect of CTD length on RNA oligomer annealing kinetics. Annealing of 100 nM Target RNA to 50 nM beacon RNA by Hfq variants was measured by stopped flow fluorescence at 30°C in 1 × TNK buffer. (A) Target RNA annealed by Hfq65 (no CTD), Hfq102 (complete CTD) or Hfq-sCTD (shortened linker CTD). (B) Target-U6 (proximal) annealed by Hfq65, Hfq102 or Hfq-sCTD. (C) Target-A18 annealed Hfq65, Hfq102 or Hfq-sCTD. The change in fluorescence emission intensity was normalized to the maximum fluorescence within an experiment. The average of five measurements is shown per progress curve. Annealing data were also collected for 0–200 nM Hfq hexamer. All progress curves were fitted to single- or double-exponential rate equations to obtain kobs, as previously described ([Santiago-Frangos et al., 2016]). [drawing 7] Figure 4—figure supplement 2. Effect of CTD length on sRNA·mRNA annealing. EMSAs of the annealing of 5 nM ^32P-ChiX to 30 nM chiP ([Rasmussen et al., 2009]) at 10°C in 1 × TNK buffer. Reactions were done (A) without Hfq, or with 33.3 nM hexamer (B) Hfq102, (C) Hfq65 or (D) Hfq-sCTD, Control reactions with ChiX only, ChiX and chiP mRNA, ChiX and Hfq or three components were loaded at the beginning (left) and end (right) of each time course, as indicated above the lanes. In the absence of Hfq, only 20% of ChiX·chiP annealed after 30 min. In the presence of all Hfq variants, at least 50% ChiX was in a ternary complex containing ChiX·Hfq·chiP within 1 min, and annealing reached a plateau within 2 min.
To determine whether the above results on RNA oligomers apply to natural RNA substrates for Hfq, we examined the annealing of the Class II sRNA ChiX to the mRNA chiP via electrophoretic mobility shift assays (EMSAs). Because the mRNA targets of class II sRNAs interact with the rim of Hfq ([Schu et al., 2015]; [Małecka et al., 2015]), we reasoned that this sRNA-mRNA pair would be sensitive to displacement by the CTD. Low nanomolar amounts of ChiX and chiP anneal very slowly at 10°C, in the absence of Hfq (Figure 4—figure supplement 2). Whereas, Hfq102, Hfq65 and Hfq-sCTD all form a ternary complex with ChiX and chiP within 20 s (Figure 4D), reaching equilibrium in a few minutes (Figure 4—figure supplement 2). […] Less ternary complex was formed by Hfq102, and the least by Hfq-sCTD.

Substance | time to form ternary complex with ChiX and chiP | stability of ChiX·Hfq·chiP ternary complex | ChiX-Hfq binary complex remaining (after 20 s)
Hfq65: truncated E. coli Hfq variant lacking the CTD | ≤ 20 s | most stable | almost no ChiX-Hfq65 binary complex remaining after 20 s
Hfq102: full-length E. coli Hfq | ≤ 20 s | medium | –
